Assay [1] has as its system left atrium of guinea pig. Description: Isolated left atrium of guinea pigs, inhibition of contraction amplitude. The format is cell-based. Particulars: Cavia porcellus; approximate values from four atriums, 35° C., 100 imp/min. Here is the method:
2. Isolated atriums of guinea pigs
In a thermostated (35° C.) dissecting dish containing modified nutrient solution acc. to Krebs-Henseleit the left atrium was cautiously separated from the ventricle myocardium by means of scissors and a needle with thread passed through the apex of the atrium and knotted. Subsequently, the basis of the atrium was fastened to the hook of a preparation holder and transferred to a thermostated organ bath containing nutrient solution (25 ml, 35° C.). In the organ bath the thread at the apex of the atrium was attached to a mechanicoelectric transducer. Electrical stimulation was effected supramaximally with a frequency of 100 imp/min (stimulation range 2.5 msec). The hook of the preparation holder represented an electrode, whereas the second electrode was designed as field electrode in the preparation holder parallel to the tensioned atrium.
The substances were cumulatively added to the organ bath at intervals of four minutes.

The subject of assay [2] is ADP-induced thrombocyte aggregation (platelet-rich plasma). Description: ADP-induced thrombocyte aggregation in vitro (rat). Particulars: read-out: IC50 value, ADP-induced thrombocyte aggregation. The format is cell-based, rat (male Sprague Dawley SIV 50). Here is the method: (§1) Collagen or ADP-induced thrombocyte aggregation in vitro (rat)
(§2) The test was carried out according to the method of BORN (Nature 194, 927-929, 1962). […] Blood was withdrawn from the postorbital venous plexus under ether anesthesia. Nine aliquots of blood were mixed with one aliquot of 3.8% (w/v) tri-Na-citrate solution. After low speed centrifugation of the mixture at room temperature, the platelet-rich plasma (PRP corresponding to the erythrocyte-frree supernatant) was removed and adjusted to a standard concentration of 400 000/μl. A universal aggregometer (Braun, Melsungen) connected with an Eppendorf photometer 1100M (Netheler and Hinz, Hamburg) was used as a measuring instrument. In this test portions of 700 μl of platelet-rich plasma (PRP) were equilibrated in the aggregometer at 37° C. for five minutes and then mixed with 58 μl of the test substance solution or with a 0.9% NaCl solution (corresponding to the blank value). After an incubation time of three minutes, the addition of 35 μl collagen suspension (collagen reagent HORM(®), Hormon Chemie, Munich) or 20 μl ADP solution (end concentration in the test 1×10^-5 mol/liter) causes aggregation. A compensation recorder recorded the change in transmission during the following 15 minutes.
(§3) The largest change in transmission occurring in this period was called amplitude (amp) of the aggregation curve. Aggregation-inhibiting substances produce a decrease of this amplitude; the inhibitory effect (E) of a substance is calculated according to the following formula:
(§4) E=(Ampbank value -AMPtest substance)/Ampblank value
(§5) Dose-effect curves were drawn for calculating the IC50 values.

Assay [3] has as its system Collagen-induced thrombocyte aggregation (platelet-rich plasma). Description: Collagen-induced thrombocyte aggregation in vitro (rat). The format is cell-based, rat (male Sprague Dawley SIV 50). Conditions: read-out: IC50 value, collagen-induced thrombocyte aggregation. Here is the method: as §1, §2, §3, §4, §5
Assay [4] concerns tenia coli (guinea pig). Description: Ca2+ effect on the smooth muscles, tenia coli, inhibition of contraction amplitude. It counts as cell-based. Particulars: Cavia porcellus, 10 min, 32° C.; for inhibition: 3·10^-5 mol/l. Here is the method: 1. Ca^2+ effect on the smooth muscles
Approximately 10 mm long, freshly isolated pieces of the tenia coli (guinea pig) were encircled at both ends with threads and connected with a mechanico-technical transducer in the organ bath (32° C., bubbled through with carbogen). Five to ten mN (0.5-1 p) were selected as mechanical pretension. […] This solution was exchanged for K+-rich and Ca++-free solution (40 mmol/l) KCl for depolarization of the cell membrane, the NaCl concentration being decreased correspondingly. One mmol/l CaCl2 was added to the nutrient solution under equilibrium conditions, resulting in a contraction of the muscle preparation. After reaching the new equilibration the test substance was added to the organ bath.
The percentage inhibition of the contraction amplitude after a ten-minute time of action of the test substance, related to the amplitude prior to administration of the substance, was calculated as substance effect. Each substance was tested in two preparations.

Where [5] appears, read: rat PRP 400 000/μl, 37° C., ADP 1×10^-5 mol/liter, Arith. M±S.D.
[6] abbreviates: rat PRP 400 000/μl, 37° C., collagen, Arith. M±S.D.

Like-named read-outs stand apart in the source and are kept apart here.

As usually defined, the IC50 is the concentration that gives 50% inhibition. A word on the inhibition: it is the percentage by which the read-out fell short of the control. Higher therefore signals strong suppression. `CCOC(=O)C1=C(C)Nc2ccn(CCCN(C)C)c(=O)c2C1c1cccc([N+](=O)[O-])c1` (stereo not drawn) [Example 2, 1,4,5,6-Tetrahydro-6-(3-dimethylaminopropyl)-2-methyl-4-(3-nitrophenyl)-5-oxo-1,6-naphthyridine-3-carboxylic acid ethyl ester]: the IC50 came to 300 µM in assay [1], 510 ± 40 µM in assay [2] (setting [5]) and 160 ± 10 µM in assay [3] (setting [6]). The compound further registered an inhibition in assay [4] of 88 ± 12%.
On to `CCOC(=O)C1=C(C)Nc2ccn(CCCN3CCCCC3)c(=O)c2C1c1cccc([N+](=O)[O-])c1` (stereo not drawn) [Example 4 f., 1,4,5,6-Tetrahydro-2-methyl-4-(3-nitrophenyl)-5-oxo-6-(3-piperidinopropyl)-1,6-naphthyridine-3-carboxylic acid ethyl ester], for which the IC50 stood at 100 µM in assay [1], 240 ± 10 µM in assay [2] (setting [5]) and 70 ± 10 µM in assay [3] (setting [6]). Further, the inhibition in assay [4] stood at 79 ± 3%.
For `CCOC(=O)C1=C(C)Nc2ccn(CCCN(C)C)c(=O)c2C1c1cccc(Cl)c1` (stereo not drawn) [Example 4 b., 1,4,5,6-Tetrahydro-4-(3-chlorophenyl)-6-(3-dimethylaminopropyl)-2-methyl-5-oxo-1,6-naphthyridine-3-carboxylic acid ethyl ester], in that order: 300 µM, 410 ± 50 µM, 160 ± 10 µM and 57 ± 7%.
For the compound `CCOC(=O)C1=C(C)Nc2ccn(CCCN3CCCCC3)c(=O)c2C1c1cccc(Cl)c1` (stereo not drawn) [Example 4 c., 1,4,5,6-Tetrahydro-4-(3-chlorophenyl)-2-methyl-5-oxo-6-(3-piperidinopropyl)-1,6-naphthyridine-3-carboxylic acid ethyl ester], the IC50 in assay [1] worked out at 300 µM; in assay [2] (setting [5]), 180 ± 10 µM; in assay [3] (setting [6]), 60 ± 10 µM. In addition, the inhibition in assay [4] worked out at 44 ± 6%.
For the compound `COc1ccc(CCN(C)CCCC(C#N)(c2ccc(OC)c(OC)c2)C(C)C)cc1OC` (stereo not drawn) [Verapamil, reference compound], the IC50 is 2 µM in assay [1], 560 ± 60 µM in assay [2] (Rattus norvegicus) and 210 ± 20 µM in assay [3] (Rattus norvegicus). This compound also registered an inhibition at 1 µM in assay [4] (10^-6 mol/l) of 100%.
`CCOC(=O)C1=C(C)Nc2ccn(CCCN3CCCCC3)c(=O)c2C1c1ccccc1Cl` (stereo not drawn) [Example 4 e., 1,4,5,6-Tetrahydro-4-(2-chlorophenyl)-2-methyl-5-oxo-6-(3-piperidinopropyl)-1,6-naphthyridine-3-carboxylic acid ethyl ester.1/2 ethyl acetate]: the IC50 in assay [1] was 100 µM; in assay [2] (setting [5]), 330 ± 20 µM; in assay [3] (setting [6]), 160 ± 20 µM. In assay [4], this compound showed an inhibition of 81 ± 5%.

Source of the values: US4698341A, “Use of 1,6-naphthyridinone derivatives in treating pulmonary thrombosis” (Godecke Aktiengesellschaft, priority 1983, dated 1987).
